According to US9115142B2, “Heterocycle-substituted piperazino-dihydrothienopyrimidines” (Boehringer Ingelheim International GmbH, priority 2007, dated 2015):
Where a name gives a salt, the structure may show the parent alone.

Molecular target: PDE4B (Homo sapiens, UniProt Q07343)
Assay: Scintillation Proximity Assay (SPA) of PDE4B enzymatic activity ([H3]-cAMP cleavage)
Assay type: biochemical
Details: test substance 1 μM; one-hour incubation with [H3]-cAMP and PDE4B at 30° C.
Description: The Scintillation Proximity Assay (SPA) (GE Healthcare, No. TRKQ7090) was carried out by using the different affinities of cyclic 3″-5″-adenosinemonophosphate (cAMP, low affinity) and linear 5″-adenosinemonophosphate (AMP, high affinity) for yttrium silicate scintillator beads. The cAMP specific phosphodiesterase (PDE) PDE4B cleaves the 3″-phosphoester bond of tritium-labelled [H3]-cAMP to form [H3]-5″-AMP. This [H3]-AMP accumulates on the scintillator beads because of its higher affinity for them and causes scintillation events (flashes of light) which are measured in a Wallac Microbeta Scintillation Counter.
The experiment starts with a one-hour incubation of [H3]-cAMP with the PDE4B enzyme in assay buffer at 30° C., in each case once with the Example substance to be tested (in a concentration of 1 μM) and once without the Example substance to be tested.
After this incubation, the reaction is stopped by the addition of the beads. The beads have an opportunity to settle in the next 45 minutes, then the measurement is carried out in the Scintillation Counter. If the substance is capable of inhibiting the enzymatic activity of the PDE4B, less [H3]-AMP is produced during the incubation phase and fewer scintillation events can be measured.

PDE4B, sequence (Q07343 whole entry, species assumed): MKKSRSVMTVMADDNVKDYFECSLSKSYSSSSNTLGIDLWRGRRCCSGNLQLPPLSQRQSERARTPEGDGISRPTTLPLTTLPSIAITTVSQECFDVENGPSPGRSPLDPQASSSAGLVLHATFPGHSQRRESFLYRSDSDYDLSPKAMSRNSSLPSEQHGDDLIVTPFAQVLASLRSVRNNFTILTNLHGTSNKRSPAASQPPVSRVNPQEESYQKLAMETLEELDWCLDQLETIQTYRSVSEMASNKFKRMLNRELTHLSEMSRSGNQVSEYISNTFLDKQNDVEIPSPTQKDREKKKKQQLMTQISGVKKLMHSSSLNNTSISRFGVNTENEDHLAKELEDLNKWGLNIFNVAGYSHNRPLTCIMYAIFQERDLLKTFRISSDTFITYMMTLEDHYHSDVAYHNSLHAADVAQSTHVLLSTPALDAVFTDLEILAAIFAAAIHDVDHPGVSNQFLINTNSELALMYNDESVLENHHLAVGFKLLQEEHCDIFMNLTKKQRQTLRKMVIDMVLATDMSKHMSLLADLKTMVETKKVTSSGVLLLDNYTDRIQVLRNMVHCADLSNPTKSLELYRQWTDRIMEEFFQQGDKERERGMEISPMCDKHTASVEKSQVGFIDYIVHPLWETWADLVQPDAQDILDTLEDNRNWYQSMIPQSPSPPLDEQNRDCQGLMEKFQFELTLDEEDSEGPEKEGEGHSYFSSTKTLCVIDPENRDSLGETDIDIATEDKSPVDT

Row | SMILES | inhibition at 1 µM
1 | [O-][S+]1CCc2nc(N3CCN(c4cc(Cl)nnc4O)CC3)nc(Nc3cccc(F)c3)c21 (stereo not shown) [Example 16, 6-chloro-4-{4-[4-(3-fluorophenylamino)-5-oxo-6,7-dihydro-5H-5λ^4-thieno[3,2-d]pyrimidin-2-yl]-piperazin-1-yl}-pyridazin-3-ol] | 95%
2 | [O-][S+]1CCc2nc(N3CCN(c4ccnnc4)CC3)nc(Nc3cccc(F)c3)c21 (stereo not shown) [Example 18, (3-fluorophenyl)-[5-oxo-2-(4-pyridazin-4-yl-piperazin-1-yl) 6,7-dihydro-5H-5λ^4-thieno[3,2-d]pyrimidin-4-yl]-amine] | 96%
3 | CC(C)[C@H](CO)Nc1nc(N2CCN(c3nc4ccccc4o3)CC2)nc2c1[S+]([O-])CC2 (stereo partly drawn) [Example 10, (R)-2-[2-(4-benzoxazol-2-yl-piperazin-1-yl)-5-oxo-6,7-dihydro-5H-5λ^4-thieno[3,2-d]pyrimidin-4-ylamino]-3-methylbutan-1-ol] | 94%
4 | [O-][S+]1CCc2nc(N3CCN(c4ccc(Cl)cn4)CC3)nc(NC3CCOCC3)c21 (stereo not shown) [Example 14, {2-[4-(5-chloropyridin-2-yl)-piperazin-1-yl]-5-oxo-6,7-dihydro-5H-5λ^4-thieno[3,2-d]pyrimidin-4-yl}-(tetrahydropyran-4-yl)-amine] | 95%
5 | CCN1CCc2ncc(N3CCN(c4nc5c(c(Nc6cccc(F)c6)n4)[S+]([O-])CC5)CC3)nc2CC1 (stereo not shown) [Example 109, {2-[4-(7-ethyl-6,7,8,9-tetrahydro-5H-pyrazino[2,3-d]azepin-2-yl)-piperazin-1-yl]-5-oxo-6,7-dihydro-5H-5λ^4-thieno[3,2-d]pyrimidin-4-yl}-(3-fluorophenyl)-amine trifluoroacetate] | 96%
6 | [O-][S+]1CCc2nc(N3CCN(c4ccc(Cl)cn4)CC3)nc(NC3(CO)CC3)c21 (stereo not shown) [Example 13, (1-{2-[4-(5-Chloropyridin-2-yl)-piperazin-1-yl]-5-oxo-6,7-dihydro-5H-5λ^4-thieno[3,2-d]pyrimidin-4-ylamino}-cyclopropyl)-methanol] | 95%
7 | CC(C)[C@H](CO)Nc1nc(N2CCN(c3ccnc(O)c3)CC2)nc2c1[S+]([O-])CC2 (stereo partly drawn) [Example 29, 4-{4-[4((R)-1-hydroxymethyl-2-methylpropylamino)-5-oxo-6,7-dihydro-5H-5λ^4-thieno[3,2-d]pyrimidin-2-yl]-piperazin-1-yl}-pyridin-2-ol] | 94%
8 | [O-][S+]1CCc2nc(N3CCN(c4ccncc4)CC3)nc(NC3CCOCC3)c21 (stereo not shown) [Example 96, [5-oxo-2-(4-pyridin-4-yl-piperazin-1-yl)-6,7-dihydro-5H-5λ^4-thieno[3,2-d]pyrimidin-4-yl]-(tetrahydropyran-4-yl)-amine trifluoroacetate] | 93%
9 | CC(C)[C@H](CO)Nc1nc(N2CCN(c3ccncc3)CC2)nc2c1[S+]([O-])CC2 (stereo partly drawn) [Example 32, (R)-3-methyl-2-[5-oxo-2-(4-pyridin-4-yl-piperazin-1-yl)-6,7-dihydro-5H-5λ^4-thieno[3,2-d]pyrimidin-4-ylamino]-butan-1-ol trifluoroacetate] | 77%
10 | [O-][S+]1CCc2nc(N3CCN(c4ccnc(O)c4)CC3)nc(Nc3cccc(F)c3)c21 (stereo not shown) [Example 114, 4-{4-[4-(3-fluorophenylamino)-5-oxo-6,7-dihydro-5H-5λ^4-thieno[3,2-d]pyrimidin-2-yl]-piperazin-1-yl}-pyridin-2-ol] | 96%
11 | CC(C)[C@H](CO)Nc1nc(N2CCN(c3ccnnc3)CC2)nc2c1[S+]([O-])CC2 (stereo partly drawn) [Example 39, (R)-3-methyl-2-[5-oxo-2-(4-pyridazin-4-yl-piperazin-1-yl)-6,7-dihydro-5H-5λ^4-thieno[3,2-d]pyrimidin-4-ylamino]-butan-1-ol trifluoroacetate] | 92%
12 | COc1cccc2c1nc(N1CCN(c3nc4c(c(Nc5cccc(F)c5)n3)[S+]([O-])CC4)CC1)n2C (stereo not shown) [Example 108, (3-fluorophenyl)-{2-[4-(4-methoxy-1-methyl-1H-benzimidazol-2-yl)-piperazin-1-yl]-5-oxo-6,7-dihydro-5H-5λ^4-thieno[3,2-d]pyrimidin-4-yl}-amine trifluoroacetate] | 95%
13 | Cn1c(N2CCN(c3nc4c(c(NC5CCOCC5)n3)[S+]([O-])CC4)CC2)nc2cc(F)ccc21 (stereo not shown) [Example 87, {2-[4-(5-fluoro-1-methyl-1H-benzoimidazol-2-yl)-piperazin-1-yl]-5-oxo-6,7-dihydro-5H-5λ^4-thieno[3,2-d]pyrimidin-4-yl}-(tetrahydropyran-4-yl)-amine] | 96%
14 | CC(C)[C@H](CO)Nc1nc(N2CCN(c3cc(Cl)nnc3O)CC2)nc2c1[S+]([O-])CC2 (stereo partly shown) [Example 37] | 90%
15 | CC(C)[C@H](CO)Nc1nc(N2CCN(c3ccnnc3N(C)C)CC2)nc2c1[S+]([O-])CC2 (stereo partly drawn) [Example 36, (R)-2-{2-[4-(3-dimethylaminopyridazin-4-yl)-piperazin-1-yl]-5-oxo-6,7-dihydro-5H-5λ^4-thieno[3,2-d]pyrimidin-4-ylamino}-3-methylbutan-1-ol trifluoroacetate] | 94%
16 | [O-][S+]1CCc2nc(N3CCN(c4nccs4)CC3)nc(Nc3cccc(F)c3)c21 (stereo not shown) [Example 1, (3-fluorophenyl)-[5-oxo-2-(4-thiazol-2-yl-piperazin-1-yl)-6,7-dihydro-5H-5λ^4-thieno[3,2-d]pyrimidin-4-yl]-amine] | 94%
17 | CC(C)[C@H](CO)Nc1nc(N2CCN(c3noc4ccccc34)CC2)nc2c1[S+]([O-])CC2 (stereo partly drawn) [Example 150, (R)-2-[2-(4-benzo[d]isoxazol-3-yl-piperazin-1-yl)-5-oxo-6,7-dihydro-5H-5λ^4-thieno[3,2-d]pyrimidin-4-ylamino]-3-methylbutan-1-ol] | 95%
18 | [O-][S+]1CCc2nc(N3CCN(c4ccncn4)CC3)nc(Nc3cccc(F)c3)c21 (stereo not shown) [Example 113, (3-fluorophenyl)-[5-oxo-2-(4-pyrimidin-4-yl-piperazin-1-yl)-6,7-dihydro-5H-5λ^4-thieno[3,2-d]pyrimidin-4-yl]-amine trifluoroacetate] | 96%
19 | [O-][S+]1CCc2nc(N3CCN(c4ccncc4)CC3)nc(Nc3cccc(F)c3)c21 (stereo not shown) [Example 117, (3-fluorophenyl)-[5-oxo-2-(4-pyridin-4-yl-piperazin-1-yl)-6,7-dihydro-5H-5λ^4-thieno[3,2-d]pyrimidin-4-yl]-amine] | 96%
20 | CCN1CCc2ncc(N3CCN(c4nc5c(c(N[C@@H](CO)C(C)C)n4)[S+]([O-])CC5)CC3)nc2CC1 (stereo partly drawn) [Example 24, (R)-2-{2-[4-(7-ethyl-6,7,8,9-tetrahydro-5H-pyrazino[2,3-d]azepin-2-yl)-piperazin-1-yl]-5-oxo-6,7-dihydro-5H-5^4-thieno[3,2-d]pyrimidin-4-ylamino}-3-methylbutan-1-ol] | 94%
21 | [O-][S+]1CCc2nc(N3CCN(c4noc5ccccc45)CC3)nc(Nc3cccc(F)c3)c21 (stereo not shown) [Example 144, [2-(4-benzo[d]isoxazol-3-yl-piperazin-1-yl)-5-oxo-6,7-dihydro-5H-5λ^4-thieno[3,2-d]pyrimidin-4-yl]-(3-fluorophenyl)-amine] | 96%
22 | CN(C)c1nnccc1N1CCN(c2nc3c(c(Nc4cccc(F)c4)n2)[S+]([O-])CC3)CC1 (stereo not shown) [Example 15, {2-[4-(3-dimethylaminopyridazin-4-yl)-piperazin-1-yl]-5-oxo-6,7-dihydro-5H-5λ^4-thieno[3,2-d]pyrimidin-4-yl}-(3-fluorophenyl)-amine] | 97%
23 | CN1C[C@@H](Nc2nc(N3CCN(c4ccncn4)CC3)nc3c2[S+]([O-])CC3)CCC1=O (stereo partly drawn) [Example 71, (S)-1-methyl-5-[5-oxo-2-(4-pyrimidin-4-yl-piperazin-1-yl)-6,7-dihydro-5H-5λ^4-thieno[3,2-d]pyrimidin-4-ylamino]-piperidin-2-one] | 96%
24 | CC(C)[C@H](CO)Nc1nc(N2CCN(c3nc(-c4ccc(F)cc4)cs3)CC2)nc2c1[S+]([O-])CC2 (stereo partly drawn) [Example 148, (R)-2-(2-{4-[4-(4-fluorophenyl)-thiazol-2-yl]-piperazin-1-yl}-5-oxo-6,7-dihydro-5H-5λ^4-thieno[3,2-d]pyrimidin-4-ylamino)-3-m ethylbutan-1-ol] | 95%
25 | [O-][S+]1CCc2nc(N3CCN(c4nc5ccccc5o4)CC3)nc(Nc3cccc(F)c3)c21 (stereo not shown) [Example 3, [2-(4-benzoxazol-2-yl-piperazin-1-yl)-5-oxo-6,7-dihydro-5H-5λ^4-thieno[3,2-d]pyrimidin-4-yl]-(3-fluorophenyl)-amine] | 95%
26 | [O-][S+]1CCc2nc(N3CCN(c4nc(-c5ccc(F)cc5)cs4)CC3)nc(Nc3cccc(F)c3)c21 (stereo not shown) [Example 142, (3-fluorophenyl)-(2-{4-[4-(4-fluorophenyl)-thiazol-2-yl]-piperazin-1-yl}-5-oxo-6,7-dihydro-5H-5λ^4-thieno[3,2-d]pyrimidin-4-yl)-amine] | 95%
27 | [O-][S+]1CCc2nc(N3CCN(c4ccncn4)CC3)nc(NC3(CO)CC3)c21 (stereo not shown) [Example 55, {1-[5-oxo-2-(4-pyrimidin-4-yl-piperazin-1-yl)-6,7-=dihydro-5H-5λ^4-thieno[3,2-d]pyrimidin-4-ylamino]-cyclopropyl}-methanol trifluoroacetate] | 95%
28 | CC(C)[C@H](CO)Nc1nc(N2CCN(c3nccs3)CC2)nc2c1[S+]([O-])CC2 (stereo partly drawn) [Example 2, (R)-3-methyl-2-[5-oxo-2-(4-thiazol-2-yl-piperazin-1-yl)-6,7-dihydro-5H-5λ^4-thieno[3,2-d]pyrimidin-4-ylamino]-butan-1-ol] | 90%
